Source: ChEMBL document CHEMBL3813651, “Structure-activity relationships of dibenzoylhydrazines for the inhibition of P-glycoprotein-mediated quinidine transport” (Bioorg Med Chem, 2016)

Legend:
[1] = target: ATP-dependent translocase ABCB1 (Homo sapiens, UniProt P08183); assay: Inhibition of human P-glycoprotein transfected in pig LLC-GA5-COL150 cells assessed as quinidine transport from apical to basolateral side preincubated for 30 mins followed by quinidine addition to apical side measured after 60 mins; format: cell-based; set-up: log(activity): scale not given here; settings: for log(activity): human, llc-ga5-col150, 1 h
ATP-dependent translocase ABCB1, sequence (P08183 whole entry): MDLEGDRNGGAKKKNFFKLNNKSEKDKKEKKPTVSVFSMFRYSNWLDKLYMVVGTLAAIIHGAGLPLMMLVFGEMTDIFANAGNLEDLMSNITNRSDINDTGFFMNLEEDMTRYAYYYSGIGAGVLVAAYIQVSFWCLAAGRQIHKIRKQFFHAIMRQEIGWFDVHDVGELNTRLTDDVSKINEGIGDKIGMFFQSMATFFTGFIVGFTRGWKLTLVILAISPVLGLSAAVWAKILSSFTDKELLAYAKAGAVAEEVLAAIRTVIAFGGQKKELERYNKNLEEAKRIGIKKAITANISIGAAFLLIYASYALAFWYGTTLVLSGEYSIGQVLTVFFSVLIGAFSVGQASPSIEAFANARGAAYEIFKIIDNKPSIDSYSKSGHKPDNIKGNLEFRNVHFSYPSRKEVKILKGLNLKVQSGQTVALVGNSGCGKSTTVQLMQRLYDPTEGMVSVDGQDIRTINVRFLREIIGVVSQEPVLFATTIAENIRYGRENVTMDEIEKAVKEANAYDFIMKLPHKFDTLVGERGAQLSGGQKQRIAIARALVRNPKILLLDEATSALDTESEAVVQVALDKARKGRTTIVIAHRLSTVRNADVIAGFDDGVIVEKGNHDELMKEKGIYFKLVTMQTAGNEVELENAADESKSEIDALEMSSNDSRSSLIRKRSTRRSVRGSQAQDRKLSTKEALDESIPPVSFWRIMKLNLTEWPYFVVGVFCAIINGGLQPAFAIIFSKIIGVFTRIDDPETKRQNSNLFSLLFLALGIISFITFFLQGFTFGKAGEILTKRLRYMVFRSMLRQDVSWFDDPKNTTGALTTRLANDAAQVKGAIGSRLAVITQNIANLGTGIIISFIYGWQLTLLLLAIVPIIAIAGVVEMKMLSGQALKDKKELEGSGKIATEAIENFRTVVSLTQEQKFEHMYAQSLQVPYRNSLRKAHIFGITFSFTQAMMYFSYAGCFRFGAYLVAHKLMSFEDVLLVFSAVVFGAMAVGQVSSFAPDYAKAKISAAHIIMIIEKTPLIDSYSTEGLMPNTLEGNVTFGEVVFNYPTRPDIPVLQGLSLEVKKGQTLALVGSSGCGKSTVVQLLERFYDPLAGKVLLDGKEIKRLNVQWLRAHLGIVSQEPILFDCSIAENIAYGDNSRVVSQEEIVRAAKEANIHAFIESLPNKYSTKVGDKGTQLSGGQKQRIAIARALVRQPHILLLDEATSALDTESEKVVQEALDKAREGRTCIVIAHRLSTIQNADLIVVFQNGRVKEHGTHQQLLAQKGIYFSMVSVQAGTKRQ

P-glycoprotein (ABCB1) = P-glycoprotein (ABCB1) (Homo sapiens, UniProt P08183); assay: Inhibition of human P-glycoprotein transfected in pig LLC-GA5-COL150 cells assessed as quinidine transport from apical to basolateral side at 30 uM preincubated for 30 mins followed by quinidine addition to apical side measured after 60 mins; format: cell-based; settings: LLC-PK1, probe quinidine
P-glycoprotein (ABCB1), sequence (P08183 whole entry): as above

[2] = Lipophilicity , logP of the compound; format: physicochemical; settings: octanol/water

SMILES	IC50 [1] [µM]	log(activity) [1]	inhibition at 1 h, 30 µM (P-glycoprotein (ABCB1)) [%]	logP [2]
COc1cccc(C(=O)NN(C(=O)c2cc(C)cc(C)c2)C(C)(C)C)c1C [METHOXYFENOZIDE]	44.3	-0.33	32	
CC(C)(C)N(NC(=O)c1ccc(Cl)cc1Cl)C(=O)c1ccccc1Cl		-0.16	40.7	3.71
CCc1ccc(C(=O)NN(C(=O)c2cc(C)cc(C)c2)C(C)(C)C)cc1 [TEBUFENOZIDE]	21.5	0.06	53.3	
CC(C)(C)N(NC(=O)c1cc(Cl)ccc1Cl)C(=O)c1ccccc1Cl	46.7	-0.1	44.2	3.75
Cc1cc(C)cc(C(=O)N(NC(=O)c2ccc(C(F)(F)F)cc2)C(C)(C)C)c1			0.9	4.66
CC(C)(C)N(NC(=O)c1c(F)cccc1Cl)C(=O)c1ccccc1Cl		-1.13	6.9	2.67
Cc1cc(C)cc(C(=O)N(NC(=O)c2ccc(C(C)C)cc2)C(C)(C)C)c1		-0.02	49	4.91
CC(C)(C)N(NC(=O)c1ccccc1Cl)C(=O)c1ccccc1Cl		-1.25	5.3	
Cc1cc(C)cc(C(=O)N(NC(=O)c2cccc(O)c2)C(C)(C)C)c1			1	3.34
CC(C)(C)N(NC(=O)c1c(F)cccc1F)C(=O)c1ccccc1Cl		-1.36	4.2	2.35
COc1cccc(C(=O)NN(C(=O)c2cc(C)cc(C)c2)C(C)(C)C)c1	58.1	-0.28	34.2	3.75
Cc1cc(C)cc(C(=O)N(NC(=O)c2cccc(C)c2C)C(C)(C)C)c1		-0.16	41.1	4.43
Cc1cc(C)cc(C(=O)N(NC(=O)c2ccc(C)c(C)c2C)C(C)(C)C)c1		0.07	54.2	4.88
CCCc1ccc(C(=O)NN(C(=O)c2ccccc2Cl)C(C)(C)C)cc1		-0.02	48.7	
Cc1cc(C)cc(C(=O)N(NC(=O)c2ccccc2C)C(C)(C)C)c1	79.9	-0.54	22.3	3.98
CC(C)(C)N(NC(=O)c1c(Cl)cccc1Cl)C(=O)c1ccccc1Cl		-1.21	5.8	3.03
CC(C)(C)N(NC(=O)c1cccc([N+](=O)[O-])c1)C(=O)c1ccccc1Cl	64.4	-0.7	16.6	2.73
CSc1ccccc1C(=O)NN(C(=O)c1ccccc1Cl)C(C)(C)C		-1.13	7	2.84

SMILES	IC50 [1] [µM]	log(activity) [1]	inhibition at 1 h, 30 µM (P-glycoprotein (ABCB1)) [%]	logP [2]
COc1cccc(C(=O)NN(C(=O)c2ccccc2Cl)C(C)(C)C)c1C		-0.86	12.2	3.46
Cc1cc(C)cc(C(=O)N(NC(=O)c2ccc(Cl)cc2)C(C)(C)C)c1		-0.78	14.2	4.31
CC(C)(C)N(NC(=O)c1ccccc1F)C(=O)c1ccccc1Cl		-1.21	5.9	
CC(C)(C)N(NC(=O)c1ccccc1C(F)(F)F)C(=O)c1ccccc1Cl		-0.73	15.6	3.02
CCCc1ccc(C(=O)NN(C(=O)c2cc(C)cc(C)c2)C(C)(C)C)cc1	15.2	0.15	58.4	4.86
COc1ccc(C(=O)NN(C(=O)c2ccccc2Cl)C(C)(C)C)cc1		-1.13	6.9	
Cc1ccc(C(=O)NN(C(=O)c2cc(C)cc(C)c2)C(C)(C)C)cc1		-0.35	30.9	3.95
Cc1cc(C)cc(C(=O)N(NC(=O)c2ccccc2)C(C)(C)C)c1	100	-0.69	17	
CC(C)(C)N(NC(=O)c1ccccc1[N+](=O)[O-])C(=O)c1ccccc1Cl			1.7	1.99
CCOc1cccc(C(=O)NN(C(=O)c2cc(C)cc(C)c2)C(C)(C)C)c1	39.9	0.02	50.9	4.28
CC(C)(C)N(NC(=O)c1cc(Cl)cc(Cl)c1)C(=O)c1ccccc1Cl			97.2	4.29
CC(C)(C)N(NC(=O)c1ccccc1-c1ccccc1)C(=O)c1ccccc1Cl	12.5	0.61	80.3	3.77
CC(C)(C)N(NC(=O)c1cccc(Cl)c1Cl)C(=O)c1ccccc1Cl		-0.09	45	3.75
Cc1cccc(C(=O)NN(C(=O)c2cc(C)cc(C)c2)C(C)(C)C)c1	48.2	-0.23	36.8	3.98
Cc1cc(C)cc(C(=O)N(NC(=O)c2ccc(F)c(F)c2F)C(C)(C)C)c1			2.5	3.64
CC(C)(C)N(NC(=O)c1cccc(Cl)c1)C(=O)c1ccccc1Cl	45.7	-0.43	27.3	
Cc1cc(C)cc(C(=O)N(NC(=O)c2cccc(O)c2C)C(C)(C)C)c1			0.5	3.84
Cc1cc(C)cc(C(=O)N(NC(=O)c2cc(F)c(F)cc2F)C(C)(C)C)c1			1.9	3.71

The next lines start with the values.

IC50 [1] [µM]	log(activity) [1]	inhibition at 1 h, 30 µM (P-glycoprotein (ABCB1)) [%]	logP [2]	SMILES
	0.25	63.9	3.87	CC(C)(C)N(NC(=O)c1cccc(I)c1)C(=O)c1ccccc1Cl
		98.9	4.25	CC(C)(C)N(NC(=O)c1ccc(Cl)c(Cl)c1)C(=O)c1ccccc1Cl
	-0.92	10.8	2.81	COc1cccc(C(=O)NN(C(=O)c2ccccc2Cl)C(C)(C)C)c1
	-1.14	6.7	2.37	COc1ccccc1C(=O)NN(C(=O)c1ccccc1Cl)C(C)(C)C
	-1.3	4.8		CC(C)(C)N(NC(=O)c1ccc(F)cc1)C(=O)c1ccccc1Cl
	-0.89	11.5		Cc1cccc(C(=O)NN(C(=O)c2ccccc2Cl)C(C)(C)C)c1
	-1.08	7.6		CC(C)(C)N(NC(=O)c1cccc(F)c1)C(=O)c1ccccc1Cl
	-0.99	9.3	3.4	Cc1cccc(C(=O)NN(C(=O)c2ccccc2Cl)C(C)(C)C)c1C
	-0.71	16.2		CC(C)(C)N(NC(=O)c1ccc(C(F)(F)F)cc1)C(=O)c1ccccc1Cl
	-0.31	33	3.62	CC(C)(C)N(NC(=O)c1cccc(Br)c1)C(=O)c1ccccc1Cl
	-0.52	23		CCc1ccc(C(=O)NN(C(=O)c2ccccc2Cl)C(C)(C)C)cc1
	-1.25	5.4		CC(C)(C)N(NC(=O)c1ccccc1)C(=O)c1ccccc1Cl
	-1.29	4.9		CC(C)(C)N(NC(=O)c1ccc(C#N)cc1)C(=O)c1ccccc1Cl
	-0.55	21.8	3.11	CC(C)(C)N(NC(=O)c1ccccc1I)C(=O)c1ccccc1Cl
	-1.1	7.3		Cc1ccc(C(=O)NN(C(=O)c2ccccc2Cl)C(C)(C)C)cc1
	-1.25	5.3		CC(=O)c1ccc(C(=O)NN(C(=O)c2ccccc2Cl)C(C)(C)C)cc1
